Drawing on US12606533B2, “3-phenylpropylamine derivative” (DAIICHI SANKYO COMPANY, LIMITED, priority 2023, dated 2026), this text covers IC50, DC50 and GI50 for eleven compounds.

As usually defined, the IC50 is the concentration at which inhibition is half-maximal. A low value points to greater potency in that assay. Broadly, the DC50 is the concentration giving 50% degradation. A word on the GI50: it is the concentration at which growth is held to half of that of the control. A lower GI50 goes with greater sensitivity of the cells.

Structures can show the parent of a compound that is named as a salt.

One assay relates to CYP11A1. The assay can be described thus: Changes in SF1 target gene expression for NCI-H295R: CYP11A1 mRNA (qPCR). The assay is classed as cell-based. Particulars: Homo sapiens, NCI-H295R cells, 24 hr. As for the experimental part:
(§1) NCI-H295R cells were cultured in a 5% CO2 incubator at 37° C. using DMEM/F12 medium (Thermo Fisher Scientific Inc.) containing 2.5% Nu-Serum (registered trademark) Growth Medium Supplement (Corning) and 1% Corning ITS+ Premix Universal Culture Supplement (Corning). The DMSO solution of each compound was serially diluted with DMSO using a D300e Digital Dispenser (TECAN), and the compounds were added to a 96-well plate (FALCON). NCI-H295R cells were seeded at 1×10^4 cells/50 μL/well on the 96-well plate containing the compounds added thereto, and cultured for 24 hr in a 5% CO2 incubator at 37° C. The final DMSO concentration in the medium was adjusted to 0.1% (v/v) in all cases, and the concentration range of the compounds was set to 1000 nM to 0.32 nM with a common ratio […]. After the completion of culture, the medium was discarded, 50 μL/well of chilled D-PBS (Sigma Aldrich) was added to wash the cells, and D-PBS was discarded. After washing, 25 μL/well of Cells-to-CT (registered trademark) Bulk Lysis Reagents (Thermo Fisher Scientific, Inc.) was added to the wells, the mixture was stirred for 5 min with a plate mixer, and 2.5 μL/well of the reaction quenching liquid was added to prepare cell lysate. The cell lysate was dispensed into a 96-well plate (Corning) at 10 μL/well, and 40 μL/well of Cells-to-CT Bulk RT Reagents (Thermo Fisher Scientific, Inc.) was added. A reverse transcription reaction was performed at 37° C. for 50 min using a thermal cycler, and the reverse transcriptase was inactivated by heating at 95° C. for 5 min, and then stored at 10° C. PrimeTime (registered trademark) Gene Expression Master Mix (Integrated DNA Technologies), the target genes CYP11A1, CYP17A1, CYP21A2, or STAR, and the control gene ACTB PrimeTime (registered trademark) qPCR Probe Assays (Integrated DNA Technologies), and Nuclease free water were mixed at a ratio of 20:1:1:10 to prepare a PrimerProbe mix. The prepared PrimerProbe mix was added to a 384-well plate at 8 μL/well, and the cDNA obtained by reverse transcription was added at 2 μL/well. Real-Time PCR was performed under fast cycling conditions (95° C. for 3 min, followed by 40 cycles of 95° C. for 5 seconds and 62° C. for 30 seconds) to measure the fluorescent signal. The obtained data was analyzed using GraphPad Prism9 (GraphPad Software Inc.) to calculate the concentration (IC50 value) that reduces the mRNA expression level by 50%. The IC50 values (unit: nM) for CYP11A1, CYP17A1, CYP21A2, and STAR, of the compounds corresponding to each Example number are shown in Table 94.
(Real-time PCR tracks product formation cycle by cycle.)

The next assay concerns CYP17A1. The assay can be described thus: Changes in SF1 target gene expression for NCI-H295R: CYP17A1 mRNA (qPCR). Particulars: Homo sapiens, NCI-H295R cells, 24 hr. The assay is classed as cell-based. The method, then:
as §1

In a further assay the test system is CYP21A2. The assay can be described thus: Changes in SF1 target gene expression for NCI-H295R: CYP21A2 mRNA (qPCR). The class given is cell-based. The conditions noted are these: Homo sapiens, NCI-H295R cells, 24 hr. The method, then: as §1
The next assay relates to STAR. The assay can be described thus: Changes in SF1 target gene expression for NCI-H295R: STAR mRNA (qPCR). The assay is classed as cell-based. The conditions noted are these: Homo sapiens, NCI-H295R cells, 24 hr. The method, then: as §1
A further assay has as its target T1, SF-1 (Homo sapiens, UniProt Q13285).
T1 construct: NCI-H295R SF-1-HiBiT cells with HiBiT tag knocked in at the endogenous SF1 locus; host or cells: NCI-H295R SF-1-HiBiT (knock-in at endogenous locus)
The assay is described as follows: SF1 degradation induction in NCI-H295R SF-1-HiBiT cells (HiBiT DC50). The conditions noted are these: 24 hr, concentration that induces 50% degradation of SF-1. The assay is classed as cell-based. In short, it runs like this: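 NCI-H295R cells carrying HiBiT-tagged SF-1, plated and grown 24 hr, then exposed to serially diluted compounds for 24 hr at 37° C. Remaining SF-1 read by lytic HiBiT luminescence; degradation rate from treated vs compound-free signal, DC50 as concentration giving 50% degradation.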
(In general: With HiBiT, luminescence reflects the tagged protein that the partner subunit can reach.)

Another assay concerns NCI-H295R cells. The assay can be described thus: Proliferation inhibitory action on NCI-H295R (CellTiter-Glo, 7 days). The class given is cell-based, human. Particulars: Homo sapiens, NCI-H295R, 168 h. An outline of the steps: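 Compounds serially diluted in DMSO; cells seeded at 2×10^3 cells/well and cultured 7 days at 37° C, 5% CO2. CellTiter-Glo 2.0 luminescence read at day 0 and day 7; proliferation rate derived from compound-addition-day signal, untreated day-7 signal and treated day-7 signal.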
(In general: ATP-based viability assays read luminescence as a measure of living cells.)

Take `COc1ccc([C@]2(CCN(Cc3ccc(C4=CC[C@H](CO)CC4)cc3)CC(C)(C)C(F)(F)F)CCOC(C)(C)C2)cc1` [Example W5, [(4R)-4′-{[{2-[(4R)-4-(4-Methoxyphenyl)-2,2-dimethyltetrahydro-2H-pyran-4-yl]ethyl)(3,3,3-trifluoro-2,2-dimethylpropyl)amino]methyl}-2,3,4,5-tetrahydro[biphenyl]-4-yl]methanol]: the concentration for half-maximal inhibition (IC50) was found to be 90 nM in the assay with CYP11A1, 372 nM with CYP17A1, 138 nM in the assay on CYP21A2 and 131 nM in the assay on STAR.

Consider `COc1ccc([C@]2(CCN(Cc3ccc(C4=CC[C@H](C(=O)O)CC4)c(F)c3)CC(C)(C)C(F)(F)F)CCOC(C)(C)C2)cc1` [Example V5, (4R)-2′-Fluoro-4′-{[{2-[(4R)-4-(4-methoxyphenyl)-2,2-dimethyltetrahydro-2H-pyran-4-yl]ethyl)(3,3,3-trifluoro-2,2-dimethylpropyl)amino]methyl}-2,3,4,5-tetrahydro[biphenyl]-4-carboxylic acid monohydrochloride], for which the IC50 in the assay on CYP11A1 was determined as 9.8 nM; in the assay with CYP17A1, 71 nM; with CYP21A2, 21 nM; with STAR, 18 nM.

The compound `COc1ccc([C@]2(CCN(Cc3ccc(C4=CCC(CN5CCN(C(=O)c6ccc7c(c6)n(C)c(=O)n7C6CCC(=O)NC6=O)CC5)CC4)cc3)CC3(C(F)(F)F)CCC3)CCOC(C)(C)C2)cc1` (stereo partly drawn) [AR7, 3-(5-{[4-({4′-[({2-[(4R)-4-(4-Methoxyphenyl)-2,2-dimethyltetrahydro-2H-pyran-4-yl]ethyl}{[1-(trifluoromethyl)cyclobutyl]methyl}amino)methyl]-2,3,4,5-tetrahydro[biphenyl]-4-yl}methyl)piperazin-1-yl]carbonyl}-3-methyl-2-oxo-2,3-dihydro-1H-benzimidazol-1-yl)piperidine-2,6-dione] gave a DC50 at SF-1 of 6.5 nM. Also, in the assay with NCI-H295R cells, the GI50 is 82 nM.

`COc1ccc([C@]2(CCN(Cc3ccc(OC4CC5(CCN(CC(=O)N6Cc7ccc8c(c7C6)n(C)c(=O)n8C6CCC(=O)NC6=O)CC5)C4)cc3)CC(C)(C)C(F)(F)F)CCOC(C)(C)C2)cc1` (stereo partly drawn) [Example AL4, 3-[7-{[2-(4-{[{2-[(4R)-4-(4-Methoxyphenyl)-2,2-dimethyltetrahydro-2H-pyran-4-yl]ethyl}(3,3,3-trifluoro-2,2-dimethylpropyl)amino]methyl}phenoxy)-7-azaspiro[3.5]nonan-7-yl]acetyl}-1-methyl-2-oxo-1,6,7,8-tetrahydroimidazo[4,5-e]isoindole-3(2H)-yl]piperidine-2,6-dione] had a DC50 at SF-1 of 4.5 nM. Also, growth in the assay on NCI-H295R cells was halved (GI50) at 83 nM.

Take `COc1ccc([C@]2(CCN(Cc3ccc(OC4CC5(CCN(CC(=O)N6CCn7c(=O)n(C8CCC(=O)NC8=O)c8cccc6c87)CC5)C4)cc3)CC(C)(C)C(F)(F)F)CCOC(C)(C)C2)cc1` (stereo partly drawn) [AN5, 3-[6-{[2-(4-{[{2-[(4R)-4-(4-Methoxyphenyl)-2,2-dimethyltetrahydro-2H-pyran-4-yl]ethyl}(3,3,3-trifluoro-2,2-dimethylpropyl)amino]methyl}phenoxy)-7-azaspiro[3.5]nonan-7-yl]acetyl}-2-oxo-5,6-dihydro-4H-imidazo[1,5,4-de]quinoxalin-1(2H)-yl]piperidine-2,6-dione]: the DC50 on SF-1 is 12 nM. Besides, in the assay with NCI-H295R cells, the GI50 is 92 nM.

On SF-1, `COc1ccc([C@]2(CCN(CC(C)(C)C(F)(F)F)C[C@H]3CC[C@H](c4ccc(NC(=O)N5CCC(Nc6ccc7c(c6)n(C)c(=O)n7C6CCC(=O)NC6=O)CC5)cc4)CC3)CCOC(C)(C)C2)cc1` (stereo partly drawn) [CA1, 4-{[1-(2,6-Dioxopiperidin-3-yl)-3-methyl-2-oxo-2,3-dihydro-1H-benzimidazol-5-yl]amino}-N-[4-(trans-4-{[{2-[(4R)-4-(4-methoxyphenyl)-2,2-dimethyltetrahydro-2H-pyran-4-yl]ethyl) (3,3,3-trifluoro-2,2-dimethylpropyl)amino]methyl}cyclohexyl)phenyl]piperidine-1-carboxamide] displayed a DC50 of 5.5 nM. Also, the GI50 with NCI-H295R cells worked out at 48 nM.

Regarding `COc1ccc([C@]2(CCN(Cc3ccc(C4=CCC(CN5CCN(C(=O)c6ccc7c(n6)n(C)c(=O)n7C6CCC(=O)NC6=O)CC5)CC4)cc3)CC(C)(C)C(F)(F)F)CCOC(C)(C)C2)cc1` (stereo partly drawn) [BC6, 3-[5-({4-[(4′-{[{2-[(4R)-4-(4-Methoxyphenyl)-2,2-dimethyltetrahydro-2H-pyran-4-yl]ethyl}(3,3,3-trifluoro-2,2-dimethylpropyl)amino]methyl}-2,3,4,5-tetrahydro[biphenyl]-4-yl)methyl]piperazin-1-yl}carbonyl)-3-methyl-2-oxo-2,3-dihydro-1H-imidazo[4,5-b]pyridin-1-yl]piperidine-2,6-dione], the half-maximal degradation concentration (DC50) at SF-1 was determined as 6.2 nM. Moreover, the GI50 in the assay with NCI-H295R cells is 48 nM.

With `COc1ccc([C@]2(CCN(Cc3ccc(C4=CC[C@H](CN5CCN(C(=O)c6ccc7c(c6)n(C)c(=O)n7C6CCC(=O)NC6=O)CC5)CC4)cc3)CC(C)(C)C(F)(F)F)CCOC(C)(C)C2)cc1` (stereo partly drawn) [BI2, 3-{5-[(4-{[(4R)-4′-{[{2-[(4R)-4-(4-Methoxyphenyl)-2,2-dimethyltetrahydro-2H-pyran-4-yl]ethyl)(3,3,3-trifluoro-2,2-dimethylpropyl)amino]methyl}-2,3,4,5-tetrahydro[biphenyl]-4-yl]methyl}piperazin-1-yl)carbonyl]-3-methyl-2-oxo-2,3-dihydro-1H-benzimidazol-1-yl}piperidine-2,6-dione], at SF-1, half-maximal degradation (DC50) was put at 11 nM. For the same compound, in the assay on NCI-H295R cells, it took 79 nM to inhibit growth by half (GI50).

The compound `COc1ccc([C@]2(CCN(Cc3ccc(C4=CC[C@H](CN5CCN(C(=O)c6ccc7c8c6OCCn8c(=O)n7C6CCC(=O)NC6=O)CC5)CC4)cc3)CC(C)(C)C(F)(F)F)CCOC(C)(C)C2)cc1` (stereo partly drawn) [BU6, 3-{7-[(4-{[(4R)-4′-{[{2-[(4R)-4-(4-Methoxyphenyl)-2,2-dimethyltetrahydro-2H-pyran-4-yl]ethyl}(3,3,3-trifluoro-2,2-dimethylpropyl)amino]methyl}-2,3,4,5-tetrahydro[biphenyl]-4-yl]methyl}piperazin-1-yl)carbonyl]-2-oxo-4,5-dihydroimidazo[1,5,4-de][1,4]benzoxazin-1(2H)-yl}piperidine-2,6-dione] displayed a DC50 at SF-1 of 18 nM. Further, the GI50 in the assay on NCI-H295R cells is 64 nM.

As to `COc1ccc([C@]2(CCN(Cc3ccc(C4=CC[C@H](C(=O)N5CCC(Nc6cccc7c6n(C)c(=O)n7C6CCC(=O)NC6=O)CC5)CC4)c(F)c3)CC(C)(C)C(F)(F)F)CCOC(C)(C)C2)cc1` (stereo partly drawn) [CD2, 3-{4-[(1-{[(4R)-2′-Fluoro-4′-{[{2-[(4R)-4-(4-methoxyphenyl)-2,2-dimethyltetrahydro-2H-pyran-4-yl]ethyl}(3,3,3-trifluoro-2,2-dimethylpropyl)amino]methyl}-2,3,4,5-tetrahydro[biphenyl]-4-yl]carbonyl}piperidin-4-yl)amino]-3-methyl-2-oxo-2,3-dihydro-1H-benzimidazol-1-yl}piperidine-2,6-dione], it took 7 nM to reach half-maximal degradation at SF-1 (DC50). In the assay with NCI-H295R cells, the GI50 stood at 33 nM.

For the compound `COc1ccc([C@]2(CCN(Cc3ccc(C4=CC[C@@H](CN5CCN(C(=O)c6ccc7c8c6NCCn8c(=O)n7C6CCC(=O)NC6=O)CC5)CC4)cc3)CC(C)(C)C(F)(F)F)CCOC(C)(C)C2)cc1` (stereo partly drawn) [BZ7, 3-{7-[(4-{[(4S)-4′-{[{2-[(4R)-4-(4-Methoxyphenyl)-2,2-dimethyltetrahydro-2H-pyran-4-yl]ethyl}(3,3,3-trifluoro-2,2-dimethylpropyl)amino]methyl)-2,3,4,5-tetrahydro[biphenyl]-4-yl]methyl}piperazin-1-yl)carbonyl]-2-oxo-5,6-dihydro-4H-imidazo[1,5,4-de]quinoxalin-1(2H)-yl}piperidine-2,6-dione], the DC50 at SF-1 is 4 nM. For the same compound, the GI50 in the assay on NCI-H295R cells is 27 nM.
